Results reported in patent US12162840B2, “Herbicidal compositions” (SYNGENTA PARTICIPATIONS AG, priority 2018, dated 2024).

Tested on: cool season plant species
Test: B2 Post-emergence efficacy Test 2, cool season plant species
Format: in vivo
Conditions: 15 days after application, 0=no damage, 100=total kill
In short: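 Plants at 12 days post-sowing were sprayed with active ingredient formulated in IF50 plus 0.2% v/v Genapol XO80, then grown in a glasshouse (24/18 °C or 20/16 °C day/night, 16 h light, 65% humidity). Damage scored 15 days after application on 0–100 scale (100 = total kill).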

## Cc1nn(C)c(=O)c(-c2c(F)ccc(Cl)c2CCc2ccc(C#N)cc2)c1O [Compound 1.024]
15 g/Ha
  Herbicidal activity (0-100 scale) ALOMY: 10
  Herbicidal activity (0-100 scale) AVEFA: 10
  Herbicidal activity (0-100 scale) BEAVA: 70
  Herbicidal activity (0-100 scale) BROTE: 0
  Herbicidal activity (0-100 scale) BRSNN: 80
  Herbicidal activity (0-100 scale) CHEAL: 60
  Herbicidal activity (0-100 scale) HORVW: 0
  Herbicidal activity (0-100 scale) KCHSC: 0
  Herbicidal activity (0-100 scale) LOLPE: 10
  Herbicidal activity (0-100 scale) POAAN: 10
  Herbicidal activity (0-100 scale) POLCO: 80
  Herbicidal activity (0-100 scale) SINAR: 80
  Herbicidal activity (0-100 scale) STEME: 90
  Herbicidal activity (0-100 scale) TRZAW: 0
  Herbicidal activity (0-100 scale) VERPE: 80
30 g/Ha
  Herbicidal activity (0-100 scale) ALOMY: 30
  Herbicidal activity (0-100 scale) AVEFA: 20
  Herbicidal activity (0-100 scale) BEAVA: 70
  Herbicidal activity (0-100 scale) BROTE: 0
  Herbicidal activity (0-100 scale) BRSNN: 90
  Herbicidal activity (0-100 scale) CHEAL: 90
  Herbicidal activity (0-100 scale) GALAP: 20
  Herbicidal activity (0-100 scale) HORVW: 10
  Herbicidal activity (0-100 scale) KCHSC: 0
  Herbicidal activity (0-100 scale) LOLPE: 70
  Herbicidal activity (0-100 scale) POAAN: 20
  Herbicidal activity (0-100 scale) SINAR: 80
  Herbicidal activity (0-100 scale) STEME: 90
  Herbicidal activity (0-100 scale) TRZAW: 0
  Herbicidal activity (0-100 scale) VERPE: 80
60 g/Ha
  Herbicidal activity (0-100 scale) ALOMY: 50
  Herbicidal activity (0-100 scale) AVEFA: 30
  Herbicidal activity (0-100 scale) BEAVA: 80
  Herbicidal activity (0-100 scale) BROTE: 10
  Herbicidal activity (0-100 scale) BRSNN: 90
  Herbicidal activity (0-100 scale) CHEAL: 90
  Herbicidal activity (0-100 scale) GALAP: 20
  Herbicidal activity (0-100 scale) HORVW: 10
  Herbicidal activity (0-100 scale) KCHSC: 0
  Herbicidal activity (0-100 scale) LOLPE: 70
  Herbicidal activity (0-100 scale) POAAN: 30
  Herbicidal activity (0-100 scale) POLCO: 90
  Herbicidal activity (0-100 scale) SINAR: 80
  Herbicidal activity (0-100 scale) STEME: 90
  Herbicidal activity (0-100 scale) TRZAW: 20
  Herbicidal activity (0-100 scale) VERPE: 90
125 g/Ha
  Herbicidal activity (0-100 scale) ALOMY: 70
  Herbicidal activity (0-100 scale) AVEFA: 60
  Herbicidal activity (0-100 scale) BEAVA: 80
  Herbicidal activity (0-100 scale) BROTE: 20
  Herbicidal activity (0-100 scale) BRSNN: 90
  Herbicidal activity (0-100 scale) CHEAL: 90
  Herbicidal activity (0-100 scale) GALAP: 60
  Herbicidal activity (0-100 scale) HORVW: 10
  Herbicidal activity (0-100 scale) KCHSC: 10
  Herbicidal activity (0-100 scale) LOLPE: 90
  Herbicidal activity (0-100 scale) POAAN: 80
  Herbicidal activity (0-100 scale) POLCO: 90
  Herbicidal activity (0-100 scale) STEME: 90
  Herbicidal activity (0-100 scale) TRZAW: 30
  Herbicidal activity (0-100 scale) VERPE: 80
250 g/Ha
  Herbicidal activity (0-100 scale) ALOMY: 70
  Herbicidal activity (0-100 scale) AVEFA: 70
  Herbicidal activity (0-100 scale) BEAVA: 80
  Herbicidal activity (0-100 scale) BROTE: 40
  Herbicidal activity (0-100 scale) BRSNN: 90
  Herbicidal activity (0-100 scale) CHEAL: 90
  Herbicidal activity (0-100 scale) GALAP: 90
  Herbicidal activity (0-100 scale) HORVW: 10
  Herbicidal activity (0-100 scale) KCHSC: 10
  Herbicidal activity (0-100 scale) LOLPE: 90
  Herbicidal activity (0-100 scale) POAAN: 80
  Herbicidal activity (0-100 scale) POLCO: 90
  Herbicidal activity (0-100 scale) SINAR: 90
  Herbicidal activity (0-100 scale) STEME: 90
  Herbicidal activity (0-100 scale) TRZAW: 60
  Herbicidal activity (0-100 scale) VERPE: 100
500 g/Ha
  Herbicidal activity (0-100 scale) ALOMY: 70
  Herbicidal activity (0-100 scale) AVEFA: 80
  Herbicidal activity (0-100 scale) BEAVA: 100
  Herbicidal activity (0-100 scale) BROTE: 70
  Herbicidal activity (0-100 scale) BRSNN: 90
  Herbicidal activity (0-100 scale) CHEAL: 100
  Herbicidal activity (0-100 scale) GALAP: 90
  Herbicidal activity (0-100 scale) HORVW: 20
  Herbicidal activity (0-100 scale) KCHSC: 20
  Herbicidal activity (0-100 scale) LOLPE: 90
  Herbicidal activity (0-100 scale) POAAN: 90
  Herbicidal activity (0-100 scale) POLCO: 100
  Herbicidal activity (0-100 scale) SINAR: 100
  Herbicidal activity (0-100 scale) STEME: 100
  Herbicidal activity (0-100 scale) TRZAW: 70
  Herbicidal activity (0-100 scale) VERPE: 100
